Measured values taken from paper PMC10476265, “Optimized LC-MS/MS Method for the Detection of ppCCK(21–44): A Surrogate to Monitor Human Cholecystokinin Secretion” (Journal of Proteome Research, 2023).
Where no end group is shown, it is not given here.

Experiments:
[1] = tested on: human duodenal organoid cultures; assay: Human duodenal organoid secretion assay: CCK8 and ppCCK(21–44) in supernatants and lysates by LC-MS/MS; format: cell-based; conditions: 10 μM forskolin + 1 mM glucose vs 1 mM glucose alone, 1 h, 2D human intestinal organoids; similar for both peptides; n = 12 from six experiments in duplicate
Description: Human duodenal organoid cultures were established for secretion assays using our established protocol.[16] To improve peptide yield, the cultures were grown in a 6-well plate format, and 400 μL of secretion buffer (0.001% fatty acid-free BSA and 1 mM glucose in saline buffer[16]) was used in the experiments.
Method development, validation, and calibration/quantitation samples were prepared by spiking working solutions of CCK8, CCK33, and ppCCK(21–44) in organoid secretion buffer. For initial CCK detection, lysed organoid cultures were prepared using 6 M guanidine hydrochloride (aq) and snap-frozen prior to extraction.
Based on the experimental design results, the extraction of CCK peptides from organoid lysate and secretion samples was adjusted from previous methods,[16],[17] as per the following steps. […]
To assess CCK secretion, we cultured human intestinal organoids in 2D cultures[16] and collected supernatants and cell lysates after 1 h incubation in either 1 mM glucose or 1 mM glucose and 10 μM forskolin, a known strong stimulus for secretion of a number of gut hormones, including CCK.[17],[18] We were unable to reliably detect sulfated CCK8 in supernatants; however, desulfated CCK8 and ppCCK(21–44) were detected under both culture conditions. […]

[2] = tested on: cholecystokinin (CCK8) (26–33), non-sulfated enzyme immunoassay kit; assay: Commercial CCK8 enzyme immunoassay (EK-069-04, Phoenix Peptide): detection and cross-reactivity; format: binding; conditions: 50 to 750 pg/mL spiked in secretion buffer, SPE eluate dried and reconstituted in EIA buffer
Source text: (§1) A cholecystokinin (CCK8) (26–33), non-sulfated enzyme immunoassay kit (EK-069-04, Phoenix Peptide, Germany), with 100% reported cross-reactivity with sulfated and non-sulfated CCK8 as well as CCK33 and gastrin, was used for assay validation. The pooled human plasma potassium EDTA anticoagulant (K2EDTA, BioIVT, West Sussex, U.K.) from healthy controls was used as a matrix for the preparation of calibration standards during the clinical sample analysis.
We compared the performance of the LC-MS/MS method with a commercially available EIA (EK-069-04, Phoenix Peptide). CCK8 solutions were spiked at different concentrations either alone or in the presence of ppCCK(21–44) into secretion buffer, duplicate samples were extracted as described, and prior to EIA analysis, the SPE eluates were dried under nitrogen and reconstituted in EIA buffer. The concentrations were deduced alongside either extracted calibration curves for LC-MS/MS analysis or non-extracted standard curves as supplied in the EIA kit.

[3] = tested on: cholecystokinin (CCK8) (26–33), non-sulfated enzyme immunoassay kit; conditions: reported for the kit; ref EK-069-04, Phoenix Peptide; cited from earlier work
Source text: as §1

CCK1 receptor (CCK1R) = conditions: statement of the introduction; cited from earlier work
Source text: Post-translational processing of preproCCK (ppCCK), including tyrosine-sulfation in the trans-Golgi network and subsequent proteolytic cleavage by prohormone convertases and carboxypeptidase E combined with C-terminal amidation by peptidylglycine α-amidating monooxygenase[5],[6] produces a number of different bioactive CCK peptides (Figure 1). For activation of the CCK1 receptor (CCK1R), which largely mediates the peripheral outcomes described above, sulfation of the CCK peptide is critical, and the bioactive products of ppCCK, named after the number of amino acids retained in the final produc ...

Molecule	cross-reactivity of the EIA kit [3] [%]	other results
C=C[C@@]1(C)CC(=O)[C@]2(O)[C@@]3(C)[C@@H](O)CCC(C)(C)[C@@H]3[C@H](O)[C@H](OC(C)=O)[C@@]2(C)O1 [forskolin]	–	fold stimulation of CCK8 and ppCCK(21–44) secretion [1]: ~2.3 fold
[Pyr]-QPVPPADPAGSGLQRAEEAPRRQL-acid [ppCCK(21–44), N-terminal peptide fragment of proCCK, surrogate analyte for CCK secretion]	–	detection by EIA [2]: did not detect
non-sulfated CCK8: CCK8 without tyrosine sulfate, cross-reactant of the EIA kit	100	–
gastrin: closely related peptide hormone sharing the bioactive C-terminus with CCK8	100	activity at CCK1R (CCK1 receptor (CCK1R)): no activity
CCK33: 33 amino acid bioactive CCK isoform (KAPSGRMSIVKNLQNLDPSHRISDRDYMGWMDF-NH2; ends and bridges not checked; UniProt P06307 71-103, looked up)	100	–
